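Interpolation was linear, between the two tested concentrations surrounding the appropriate level; five concentrations were tested over 48 hours in 96-well plates. GI50 marks 50% less growth. TGI: total growth inhibition.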
Key:
Assay in all cases: NCI tumour cell line growth inhibition, 48 h
786-0 renal = tested on: 786-0 renal
A498 renal = tested on: A498 renal
A549 NSCLC = tested on: A549 NSCLC
ACHN renal = tested on: ACHN renal
BT-549 breast = tested on: BT-549 breast
CAKI-1 renal = tested on: CAKI-1 renal
CCRF-CEM leukemia = tested on: CCRF-CEM leukemia
COLO 205 colon = tested on: COLO 205 colon
DU-145 prostate = tested on: DU-145 prostate
HCC-2998 colon = tested on: HCC-2998 colon
HCT-116 colon = tested on: HCT-116 colon
HCT-15 colon = tested on: HCT-15 colon
HL-60(TB) leukemia = tested on: HL-60(TB) leukemia
HOP-62 NSCLC = tested on: HOP-62 NSCLC
HOP-92 NSCLC = tested on: HOP-92 NSCLC
HS 578T breast = tested on: HS 578T breast
HT29 colon = tested on: HT29 colon
IGROV1 ovarian = tested on: IGROV1 ovarian
K-562 leukemia = tested on: K-562 leukemia
KM12 colon = tested on: KM12 colon
M14 melanoma = tested on: M14 melanoma
MALME-3M melanoma = tested on: MALME-3M melanoma
MCF7 breast = tested on: MCF7 breast
MDA-MB-231 breast = tested on: MDA-MB-231 breast
MDA-MB-435 = tested on: MDA-MB-435
MOLT-4 leukemia = tested on: MOLT-4 leukemia
NCI-H226 lung = tested on: NCI-H226 lung
NCI-H23 lung = tested on: NCI-H23 lung
NCI-H460 lung = tested on: NCI-H460 lung
NCI-H522 lung = tested on: NCI-H522 lung
NCI/ADR-RES ovarian = tested on: NCI/ADR-RES ovarian
OVCAR-3 ovarian = tested on: OVCAR-3 ovarian
OVCAR-4 ovarian = tested on: OVCAR-4 ovarian
OVCAR-5 ovarian = tested on: OVCAR-5 ovarian
OVCAR-8 ovarian = tested on: OVCAR-8 ovarian
PC-3 prostate = tested on: PC-3 prostate
RPMI-8226 leukemia = tested on: RPMI-8226 leukemia
RXF 393 renal = tested on: RXF 393 renal
SF-268 CNS = tested on: SF-268 CNS
SF-295 CNS = tested on: SF-295 CNS
SK-MEL-2 melanoma = tested on: SK-MEL-2 melanoma
SK-MEL-28 melanoma = tested on: SK-MEL-28 melanoma
SK-MEL-5 melanoma = tested on: SK-MEL-5 melanoma
SK-OV-3 ovarian = tested on: SK-OV-3 ovarian
SN12C renal = tested on: SN12C renal
SNB-19 CNS = tested on: SNB-19 CNS
SNB-75 CNS = tested on: SNB-75 CNS
SR leukemia = tested on: SR leukemia
SW-620 colon = tested on: SW-620 colon
T-47D breast = tested on: T-47D breast
TK-10 renal = tested on: TK-10 renal
U251 CNS = tested on: U251 CNS
UACC-257 melanoma = tested on: UACC-257 melanoma
UACC-62 melanoma = tested on: UACC-62 melanoma
UO-31 renal = tested on: UO-31 renal

Structure (SMILES): Nc1ncc(-c2cnn(CCO)c2)c2scc(-c3ccc(NC(=O)Nc4cccc(F)c4)cc3)c12
- GI50 (786-0 renal): 0.45 µM
- TGI (786-0 renal): 6.69 µM
- GI50 (A498 renal): 0.122 µM
- TGI (A498 renal): 0.663 µM
- GI50 (A549 NSCLC): 0.125 µM
- TGI (A549 NSCLC): 1.5 µM
- GI50 (ACHN renal): 0.289 µM
- TGI (ACHN renal): 4.75 µM
- GI50 (BT-549 breast): 0.618 µM
- TGI (BT-549 breast): 3.76 µM
- GI50 (CAKI-1 renal): 0.32 µM
- TGI (CAKI-1 renal): 2.2 µM
- GI50 (CCRF-CEM leukemia): < 0.01 µM
- TGI (CCRF-CEM leukemia): 5.01 µM
- GI50 (COLO 205 colon): < 0.01 µM
- TGI (COLO 205 colon): < 0.0307 µM
- GI50 (DU-145 prostate): 0.52 µM
- TGI (DU-145 prostate): 11.6 µM
- GI50 (HCC-2998 colon): 1.39 µM
- TGI (HCC-2998 colon): 6.79 µM
- GI50 (HCT-116 colon): 0.206 µM
- TGI (HCT-116 colon): 3.18 µM
- GI50 (HCT-15 colon): 0.371 µM
- TGI (HCT-15 colon): 14.3 µM
- GI50 (HL-60(TB) leukemia): 0.499 µM
- TGI (HL-60(TB) leukemia): 5.09 µM
- GI50 (HOP-62 NSCLC): 0.418 µM
- TGI (HOP-62 NSCLC): 2.71 µM
- GI50 (HOP-92 NSCLC): 0.227 µM
- TGI (HOP-92 NSCLC): 0.733 µM
- GI50 (HS 578T breast): 0.273 µM
- TGI (HS 578T breast): 3.02 µM
- GI50 (HT29 colon): 0.283 µM
- TGI (HT29 colon): 2.07 µM
- GI50 (IGROV1 ovarian): 0.285 µM
- TGI (IGROV1 ovarian): 2.61 µM
- GI50 (K-562 leukemia): 0.0399 µM
- TGI (K-562 leukemia): 15.1 µM
- GI50 (KM12 colon): 0.0103 µM
- TGI (KM12 colon): 1.19 µM
- GI50 (M14 melanoma): 0.193 µM
- TGI (M14 melanoma): 3.31 µM
- GI50 (MALME-3M melanoma): 0.132 µM
- TGI (MALME-3M melanoma): 1.38 µM
- GI50 (MCF7 breast): 0.226 µM
- TGI (MCF7 breast): 3.7 µM
- GI50 (MDA-MB-231 breast): 1.14 µM
- TGI (MDA-MB-231 breast): 2.91 µM
- GI50 (MDA-MB-435): 0.209 µM
- TGI (MDA-MB-435): 1.83 µM
- GI50 (MOLT-4 leukemia): < 0.0226 µM
- TGI (MOLT-4 leukemia): 2.34 µM
- GI50 (NCI-H226 lung): 0.162 µM
- TGI (NCI-H226 lung): 5.15 µM
- GI50 (NCI-H23 lung): 0.211 µM
- TGI (NCI-H23 lung): 2.3 µM
- GI50 (NCI-H460 lung): < 0.0355 µM
- TGI (NCI-H460 lung): 4.21 µM
- GI50 (NCI-H522 lung): 0.449 µM
- TGI (NCI-H522 lung): 2.29 µM
- GI50 (NCI/ADR-RES ovarian): 2.5 µM
- TGI (NCI/ADR-RES ovarian): 20.1 µM
- GI50 (OVCAR-3 ovarian): 1.16 µM
- TGI (OVCAR-3 ovarian): 5.87 µM
- GI50 (OVCAR-4 ovarian): 0.299 µM
- TGI (OVCAR-4 ovarian): 11.4 µM
- GI50 (OVCAR-5 ovarian): 0.375 µM
- TGI (OVCAR-5 ovarian): 3 µM
- GI50 (OVCAR-8 ovarian): 0.253 µM
- TGI (OVCAR-8 ovarian): 2.39 µM
- GI50 (PC-3 prostate): 0.288 µM
- TGI (PC-3 prostate): 3.28 µM
- GI50 (RPMI-8226 leukemia): 0.454 µM
- TGI (RPMI-8226 leukemia): 2.81 µM
- GI50 (RXF 393 renal): 0.241 µM
- TGI (RXF 393 renal): 1.13 µM
- GI50 (SF-268 CNS): 0.435 µM
- TGI (SF-268 CNS): 9.73 µM
- GI50 (SF-295 CNS): < 0.0373 µM
- TGI (SF-295 CNS): 0.762 µM
- GI50 (SK-MEL-2 melanoma): 0.364 µM
- TGI (SK-MEL-2 melanoma): 1.66 µM
- GI50 (SK-MEL-28 melanoma): 0.465 µM
- TGI (SK-MEL-28 melanoma): 3.56 µM
- GI50 (SK-MEL-5 melanoma): 1.03 µM
- TGI (SK-MEL-5 melanoma): 2.35 µM
- GI50 (SK-OV-3 ovarian): 0.338 µM
- TGI (SK-OV-3 ovarian): 3.99 µM
- GI50 (SN12C renal): 0.186 µM
- TGI (SN12C renal): 6.59 µM
- GI50 (SNB-19 CNS): 1.04 µM
- TGI (SNB-19 CNS): 9.16 µM
- GI50 (SNB-75 CNS): 0.271 µM
- TGI (SNB-75 CNS): 1.74 µM
- GI50 (SR leukemia): < 0.01 µM
- TGI (SR leukemia): 1.26 µM
- GI50 (SW-620 colon): 0.179 µM
- TGI (SW-620 colon): 3.74 µM
- GI50 (T-47D breast): 1.32 µM
- TGI (T-47D breast): 5.93 µM
- GI50 (TK-10 renal): 0.394 µM
- TGI (TK-10 renal): 3.43 µM
- GI50 (U251 CNS): 0.301 µM
- TGI (U251 CNS): 1.72 µM
- GI50 (UACC-257 melanoma): 0.287 µM
- TGI (UACC-257 melanoma): 1.89 µM
- GI50 (UACC-62 melanoma): 0.37 µM
- TGI (UACC-62 melanoma): 1.78 µM
- GI50 (UO-31 renal): 0.219 µM
- TGI (UO-31 renal): 1.98 µM

— PubChem BioAssay (NCI)
